ChEMBL document CHEMBL2390907, “Juglone, isolated from Juglans mandshurica Maxim, induces apoptosis via down-regulation of AR expression in human prostate cancer LNCaP cells” (Bioorg Med Chem Lett, 2013)
Activity calls are given as the source filed them.

Columns and labels:
[1] = test system: LNCaP; experiment: Induction of apoptosis in human LNCAP cells assessed as increase of annexin V-FITC/PI staining positive cells after 24 hrs by flow cytometry; assay type: functional, cell-based
[2] = test system: LNCaP; experiment: Induction of apoptosis in human LNCAP cells assessed as decrease of prostate-specific antigen protein expression at 5 uM after 24 hrs by Western blot analysis; assay type: functional, cell-based
[3] = test system: LNCaP; experiment: Induction of apoptosis in human LNCAP cells assessed as decrease of mitochondria membrane potential after 24 hrs using rhodamine 123 dye by flow cytometry; assay type: functional, cell-based
[4] = test system: LNCaP; experiment: Induction of apoptosis in human LNCAP cells assessed as decrease of androgen receptor protein expression at 5 uM after 24 hrs by Western blot analysis; assay type: functional, cell-based
[5] = test system: LNCaP; experiment: Induction of apoptosis in human LNCAP cells assessed as decrease of prostate-specific antigen protein expression after 24 hrs by Western blot analysis; assay type: functional, cell-based
[6] = test system: LNCaP; experiment: Induction of apoptosis in human LNCAP cells assessed as decrease of androgen receptor protein expression after 24 hrs by Western blot analysis; assay type: functional, cell-based
[7] = test system: LNCaP; experiment: Induction of apoptosis in human LNCAP cells assessed as cleavage of precursor of caspase-3 and 9 after 24 hrs by Western blot analysis; assay type: functional, cell-based
[8] = test system: LNCaP; experiment: Induction of apoptosis in human LNCAP cells assessed as decrease of DHT-induced prostate-specific antigen mRNA expression at 15 uM treated 2 hrs before DHT challenge measured after 24 hrs by RT-PCR analysis; assay type: functional, cell-based
[9] = test system: LNCaP; experiment: Antiproliferative activity against human LNCAP cells after 24 hrs by MTT assay; assay type: functional, cell-based
[10] = test system: LNCaP; experiment: Induction of apoptosis in human LNCAP cells assessed as nuclear condensation at 5 to 15 uM after 24 hrs using Hoechst 33342 staining by fluorescence microscopic analysis; assay type: functional, cell-based
[11] = test system: LNCaP; experiment: Induction of apoptosis in human LNCAP cells assessed as membrane blebbing at 5 to 15 uM after 24 hrs using Hoechst 33342 staining by fluorescence microscopic analysis; assay type: functional, cell-based
[12] = test system: LNCaP; experiment: Induction of apoptosis in human LNCAP cells assessed as decrease of DHT-induced androgen receptor mRNA expression at 15 uM treated 2 hrs before DHT challenge measured after 24 hrs by RT-PCR analysis; assay type: functional, cell-based
[13] = test system: LNCaP; experiment: Induction of apoptosis in human LNCAP cells assessed as cell shrinkage at 5 to 15 uM after 24 hrs using Hoechst 33342 staining by fluorescence microscopic analysis; assay type: functional, cell-based
[14] = test system: LNCaP; experiment: Induction of apoptosis in human LNCAP cells assessed as activation of caspase-3 and 9 at 15 uM after 24 hrs by Western blot analysis relative to control; assay type: functional

O=C1C=CC(=O)c2c(O)cccc21 [JUGLONE]
>2.5: fold change (FC) [14]
13.8 µM: IC50 [9]
active: Activity [1] Dose-dependent effect | Activity [3] Dose-dependent effect | Activity [5] Dose-dependent effect | Activity [6] Dose-dependent effect | Activity [7] Dose-dependent effect | Activity [8] | Activity [9] Dose-dependent effect | Activity [10] | Activity [11] | Activity [12] | Activity [13]
inactive: Activity [2] | Activity [4]
